Patent publication US6734190B2, “Dihydrodipyrazolopyridinylbenzamide and -sulfonamide inhibitors of B7-1” (Wyeth, priority 2002, dated 2004)

Assays:
[1] = target: T1, B7-1/CD28 (Homo sapiens, UniProt P33681); assay: CD28/B7-1 ELISA (B7-1/CD28 binding inhibition); conditions: CD28-Fc coated wells; B7-1-Fc-biotin/streptavidin-alkaline phosphatase detection complex; 1% DMSO
T1 sequence (P33681 35-242 limits assumed): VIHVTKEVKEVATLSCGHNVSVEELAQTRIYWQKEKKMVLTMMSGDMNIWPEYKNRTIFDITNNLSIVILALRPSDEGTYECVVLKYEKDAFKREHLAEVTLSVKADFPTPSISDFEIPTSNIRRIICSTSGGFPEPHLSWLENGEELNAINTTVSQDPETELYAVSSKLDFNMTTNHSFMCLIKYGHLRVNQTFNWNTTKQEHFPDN
Procedure: Evaluation of B7-1/CD28 Binding Inhibition for Test Compounds
Wells are coated with 300 ng CD28-Fc in carbonate buffer (pH 9.4) overnight at 4° C., blocked with 1% bovine serum albumin in tris-buffered saline (TBS) for 1 h at 22° C. and washed 3 times in TBS prior to assay. The detection complex is formed as follows: B7-1-Fc-biotin, prepared using NHS-LC-biotin (Pierce #21335) according to the manufacturers instructions (4.1 moles biotinimole Fc), is added at 0.8 ug/ml to streptavidin-alkaline phosphatase (Caltag Sa1008) at 1:1000 in TBS. A solution of test compound in dimethylsulfoxide (1% final) are added to this complex and incubated 30 min at 22° C. Detection complex (+/−inhibitors) is then added to the CD28 coated wells for 25 min at 22° C., washed 5 times with TBS, developed with the colorimetric substrate pNPP (Pierce #34045) in diethanolamine/MgCl2 buffer (pH 9.5) and read at 405 nm. The inhibition constant (IC50) is calculated by subtracting background binding and comparing to uninhibited (DMSO alone) controls. The inhibition constant represents the concentration of test compound required to achieve 50% inhibition.

| Structure (SMILES) | melting point | IC50 [1] [nM] |
| --- | --- | --- |
| CC(=O)c1cccc(NC(=O)c2ccc(-n3[nH]c4c(c(-c5cccc(C(F)(F)F)c5)nc5c4cnn5C)c3=O)cc2)c1 [Example 38] | 300 °C (dec.) | 44 |
| CN1CCN(C(=O)c2ccc(-n3[nH]c4c(c(-c5cccc(C(F)(F)F)c5)nc5c4cnn5C)c3=O)cc2)CC1 [Example 27] | 191 to 194 °C | 500 |
| Cn1ncc2c3[nH]n(-c4cccc(C(=O)N5CCC[C@H]5C(=O)O)c4)c(=O)c3c(-c3cccc(C(F)(F)F)c3)nc21 [Example 69] | 168 to 171 °C | 100 |
| CC(O)c1cccc(NC(=O)c2ccc(-n3[nH]c4c(c(-c5cccc(C(F)(F)F)c5)nc5c4cnn5C)c3=O)cc2F)c1 (stereo not shown) [Example 24] | > 350 °C | 110 |
| COCc1cccc(NC(=O)c2ccc(-n3[nH]c4c(c(-c5cccc(C(F)(F)F)c5)nc5c4cnn5C)c3=O)cc2)c1 [Example 29] | 210 °C (dec.) | 110 |
| Cn1ncc2c3[nH]n(-c4ccc(C(=O)N5CCCC(CO)C5)cc4)c(=O)c3c(-c3cccc(C(F)(F)F)c3)nc21 (stereo not shown) [Example 36] | 189.8 to 192.7 °C | 180 |

The remaining compounds from weak to strong by IC50 [1], led by results:

| melting point | IC50 [1] [nM] | Structure (SMILES) |
| --- | --- | --- |
| 255 to 258 °C | 44 | Cn1ncc2c3[nH]n(-c4cccc(C(=O)N5CCCC5)c4)c(=O)c3c(-c3cccc(C(F)(F)F)c3)nc21 [Example 11, 6-methyl-2-[3-(1-pyrrolidinylcarbonyl)phenyl]-4-[3-(trifluoromethyl)phenyl]-1,6-dihydrodipyrazolo[3,4-b:3,4-d]pyridin-3(2H)-one] |
| 206 to 209 °C | 36 | Cn1ncc2c3[nH]n(-c4ccc(C(=O)Nc5ccc(O)c(O)c5)cc4)c(=O)c3c(-c3cccc(C(F)(F)F)c3)nc21 [Example 98] |
| 212 to 215 °C | 22 | Cn1ncc2c3[nH]n(-c4ccc(Cl)c(C(=O)NCc5ccc(O)c(O)c5)c4)c(=O)c3c(-c3cccc(C(F)(F)F)c3)nc21 [Example 21] |
| 287 to 290 °C | 13 | Cn1ncc2c3[nH]n(-c4ccc(C(=O)N5CCOCC5)cc4)c(=O)c3c(-c3cccc(C(F)(F)F)c3)nc21 [Example 33, 6-methyl-2-[4-(4-morpholinylcarbonyl)phenyl]-4-[3-(trifluoromethyl)phenyl]-1,6-dihydrodipyrazolo[3,4-b:3,4-d]pyridin-3(2H)-one] |
| 251 to 254 °C | 3 | CC(O)c1cccc(NC(=O)c2ccc(-n3[nH]c4c(c(-c5cccc(C(F)(F)F)c5)nc5c4cnn5C)c3=O)cc2)c1 (stereo not shown) [Example 25] |
